Here are results for 25 compounds from patent publication US11584747B2, “Substituted pyridopyrimidinonyl compounds useful as T cell activators” (BRISTOL-MYERS SQUIBB COMPANY, priority 2019, dated 2023).

In one test the target is human DGKα (Homo sapiens (Human), UniProt P23743). The experiment in a line: DGKα ADPGLO assay (detergent/lipid micelle substrate). In kind it is biochemical. As to the method:
DGK Alpha ADPGLO (Truncated) IC50 (uM)
The detergent/lipid micelle was prepared by combining 15 g phosphatidylserine (Avanti 840035P) and 1 g diacylglycerol (8008110) and dissolving into 150 mL chloroform in a 2 L round bottom flask. Chloroform was removed under high vacuum by rotary evaporation. […] The lipid/detergent solution was split into 5 mL aliquots and stored at −80° C.
On the technique in general: ADP-Glo turns the ADP formed in a reaction into a luminescent signal.

Test [1] deals with human venous whole blood (IFN-γ). Description: Human whole blood IFN-γ assay. The format is cell-based. As to the method: Human venous whole blood (22.5 μL per well), obtained from healthy donors, was pre-treated with compounds for one hour at 37° C. in a humidified 95% air/5% CO2 incubator. The blood was stimulated with 2.5 μL anti-human CD3 and anti-CD28 mAb at a final concentration of 1 μg/mL each for 24 hours at 37° C. IFN-γ in the supernatants was measured using AlphLISA kit (Cat #AL217).

The target in another test is human DGKζ (Homo sapiens (Human), UniProt Q13574). Description: DGKζ LIPGLO assay (extruded liposome substrate, ADP-Glo luminescence). The format is biochemical.
The mark [2] stands for this setting: truncated DGK alpha, read-out: DGK alpha ADPGLO (Truncated) IC50.
The mark [3] stands for this setting: whole blood, normalized to 3 μM reference compound as 100% activation, read-out: IFN-γ Whole Blood Normalized EC50.
Setting [4] is: liposome assay, read-out: DGK zeta LIPGLO IC50.
The mark [5] stands for this setting: ADPGLO assay, read-out: DGK alpha ADPGLO IC50.
The mark [6] stands for this setting: liposome (LIPGLO) assay, read-out: DGK zeta (liposome assay) IC50.
Setting [7] is: Homo sapiens, 24 h, human whole blood, anti-CD3 plus anti-CD28 stimulation, 24 hours, read-out: IFN-γ Whole Blood EC50.
Where [8] appears, read: Homo sapiens, whole blood, normalized to 3 μM reference compound as 100% activation, read-out: IFN-γ Whole Blood Normalized EC50.

Like-named read-outs stand apart in the source and are kept apart here.

Chain of human DGKα (P23743 whole entry, looked up, the tested form may be a part): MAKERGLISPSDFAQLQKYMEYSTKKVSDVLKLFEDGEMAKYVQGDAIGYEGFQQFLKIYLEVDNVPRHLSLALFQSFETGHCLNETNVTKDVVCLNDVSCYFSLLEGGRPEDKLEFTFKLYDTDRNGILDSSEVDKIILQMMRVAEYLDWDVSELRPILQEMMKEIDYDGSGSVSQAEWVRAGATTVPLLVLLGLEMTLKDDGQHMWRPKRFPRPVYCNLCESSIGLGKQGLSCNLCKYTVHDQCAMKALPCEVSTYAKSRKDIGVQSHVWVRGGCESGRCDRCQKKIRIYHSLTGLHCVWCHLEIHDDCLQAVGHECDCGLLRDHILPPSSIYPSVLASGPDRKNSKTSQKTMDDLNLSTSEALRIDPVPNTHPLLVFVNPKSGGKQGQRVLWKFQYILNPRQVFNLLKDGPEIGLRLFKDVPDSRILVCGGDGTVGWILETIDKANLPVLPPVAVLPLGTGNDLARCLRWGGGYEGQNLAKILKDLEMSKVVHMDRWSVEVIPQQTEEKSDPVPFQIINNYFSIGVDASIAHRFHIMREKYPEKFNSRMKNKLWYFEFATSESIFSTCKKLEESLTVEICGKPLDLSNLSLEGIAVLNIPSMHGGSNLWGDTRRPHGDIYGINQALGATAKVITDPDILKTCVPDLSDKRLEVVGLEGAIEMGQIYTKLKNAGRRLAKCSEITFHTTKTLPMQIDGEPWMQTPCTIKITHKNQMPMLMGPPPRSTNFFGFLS
Chain of human DGKζ (Q13574 other isoform, or with tags, fused parts or gaps): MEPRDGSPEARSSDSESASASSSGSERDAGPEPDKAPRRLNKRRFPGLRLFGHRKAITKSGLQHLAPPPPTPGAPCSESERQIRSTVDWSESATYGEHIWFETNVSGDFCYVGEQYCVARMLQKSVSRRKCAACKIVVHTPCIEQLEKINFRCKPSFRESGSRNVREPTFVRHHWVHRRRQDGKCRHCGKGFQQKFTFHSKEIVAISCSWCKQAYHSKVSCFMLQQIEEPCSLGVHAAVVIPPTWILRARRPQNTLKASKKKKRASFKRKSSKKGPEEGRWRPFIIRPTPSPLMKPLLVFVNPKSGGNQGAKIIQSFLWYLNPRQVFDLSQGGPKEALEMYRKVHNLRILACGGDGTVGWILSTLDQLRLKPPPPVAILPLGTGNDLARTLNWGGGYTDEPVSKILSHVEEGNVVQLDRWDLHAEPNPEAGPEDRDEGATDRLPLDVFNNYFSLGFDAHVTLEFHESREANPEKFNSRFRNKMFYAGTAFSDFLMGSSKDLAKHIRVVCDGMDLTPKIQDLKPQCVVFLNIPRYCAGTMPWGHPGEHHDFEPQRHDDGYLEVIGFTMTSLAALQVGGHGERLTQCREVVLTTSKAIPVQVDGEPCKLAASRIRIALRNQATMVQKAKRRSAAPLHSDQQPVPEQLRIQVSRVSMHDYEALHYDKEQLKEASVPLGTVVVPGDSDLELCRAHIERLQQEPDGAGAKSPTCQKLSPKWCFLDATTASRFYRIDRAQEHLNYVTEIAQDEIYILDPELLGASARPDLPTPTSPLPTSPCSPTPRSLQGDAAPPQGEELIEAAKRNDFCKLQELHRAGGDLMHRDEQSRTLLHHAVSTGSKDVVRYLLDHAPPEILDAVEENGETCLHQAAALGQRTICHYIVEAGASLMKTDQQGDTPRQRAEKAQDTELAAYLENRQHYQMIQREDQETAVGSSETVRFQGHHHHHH

What is called IC50 is the concentration at which inhibition is half-maximal. Regarding `CCC(c1ccc(C(F)(F)F)cc1)N1C[C@H](CC)N(c2nc(=O)n(C)c3ccc(C#N)nc23)C[C@H]1CC` (single isomer, unassigned) [Example 5], the IC50 on human DGKα (setting [2]) is 64 nM.
As to `CC[C@@H]1CN(c2nc(=O)n(C)c3ccc(C#N)nc23)[C@@H](C)CN1C(C)c1ccc(C(F)(F)F)cc1` (single isomer, unassigned) [Example 7], the IC50 at human DGKα (setting [2]) was 180 nM.
In general, EC50 refers to the concentration giving half of the maximal effect. Turning to `CC[C@H]1CN(C(C)c2ccc(OC(F)(F)F)cc2F)[C@H](CC)CN1c1nc(=O)n(C)c2ccc(C#N)nc12` (single isomer, unassigned) [Example 39], the EC50 in test [1] (setting [3]) was found to be 2730 nM. Besides, the IC50 at human DGKζ (setting [4]) worked out at 770 nM.
Consider `CC[C@@H]1CN(c2nc(=O)n(C)c3ccc(C#N)nc23)[C@@H](C)CN1C(c1ccc(F)cc1)c1cc(C2CC2)on1` (single isomer, unassigned) [Example 102], for which, on human DGKζ (setting [4]), the IC50 amounted to 94 nM.
As for `CC[C@@H]1CN(c2nc(=O)n(C)c3ccc(C#N)nc23)[C@@H](C)CN1C(c1nnc(C2CC2)o1)C(C)C` (single isomer, unassigned) [Example 367], the IC50 at human DGKα (setting [5]) came out at 120 nM; on human DGKζ (setting [6]), 850 nM.
For `CC[C@@H]1CN(c2nc(=O)n(C)c3ccc(C#N)nc23)[C@@H](C)CN1C(c1nnc(C2CC2)o1)C(C)C` (single isomer, unassigned) [Example 368], the figures for the half-maximal inhibitory concentration (IC50) at human DGKα (setting [5]) and on human DGKζ (setting [6]) were 1170 nM and 2250 nM, respectively.
In the case of `CCC[C@@H]1CN(c2nc(=O)n(C)c3ccc(C#N)nc23)[C@@H](C)CN1C(C)c1ccc(C(F)(F)F)cc1` (single isomer, unassigned) [Example 396], the IC50 on human DGKα (setting [5]) is 920 nM.
For the compound `CCC(c1ccc(C(F)(F)F)cc1)N1C[C@H](C)N(c2nc(=O)n(C)c3ccc(C#N)nc23)C[C@H]1COC` (single isomer, unassigned) [Example 398], the IC50 on human DGKα (setting [5]) came to 90 nM; at human DGKζ (setting [6]), 64 nM.
The corresponding values for `COC[C@H]1CN(C(C)c2ccc(C(F)(F)F)cc2)[C@H](C)CN1c1nc(=O)n(C)c2ccc(C#N)nc12` (single isomer, unassigned) [Example 410] are 220 nM and 2370 nM.
In the case of `CC[C@@H]1CN(c2nc(=O)[nH]c3ccc(C#N)nc23)[C@@H](C)CN1C(C)c1ccc(C(F)(F)F)cc1` (single isomer, unassigned) [Example 413], the IC50 at human DGKα (setting [5]) was determined as 440 nM; on human DGKζ (setting [6]) it was 750 nM.
`[2H]C([2H])([2H])n1c(=O)nc(N2C[C@@H](CC)N(C(C)c3ccc(C(F)(F)F)cc3)C[C@@H]2C)c2nc(C#N)ccc21` (single isomer, unassigned) [Example 420]: the figures for the 50% inhibitory concentration (IC50) on human DGKα (setting [5]) and on human DGKζ (setting [6]) were 90 nM and 760 nM, respectively.
For `CCC(c1ccc(C(F)(F)F)cc1)N1C[C@H](CC)N(c2nc(=O)n(C)c3ccc(Cl)nc23)C[C@H]1CC` (single isomer, unassigned) [Example 422], in that order: 230 nM and 6870 nM.
Take `CC[C@H]1CN(C(C)c2ccc(C(F)(F)F)cc2)[C@H](CC)CN1c1nc(=O)n(C)c2ccc(COC)nc12` (single isomer, unassigned) [Example 424]: the IC50 was 114000 nM on human DGKα (setting [5]) and 4590 nM at human DGKζ (setting [6]).
For `CC[C@H]1CN(C(C)c2ccc(C(F)(F)F)cc2)[C@H](CC)CN1c1nc(=O)n(C)c2ccc(COC)nc12` (single isomer, unassigned) [Example 425], the IC50 at human DGKα (setting [5]) was determined as 83300 nM; at human DGKζ (setting [6]), 12500 nM.
The corresponding values for `CC[C@H]1CN(C(C)c2ccc(C(F)(F)F)cc2)[C@H](CC)CN1c1nc(=O)n(C)c2ccc(OC)nc12` (single isomer, unassigned) [Example 427] are 460 nM and 4450 nM.
In the case of `CC[C@H]1CN(C(C)c2ccc(C(F)(F)F)cc2)[C@H](CC)CN1c1nc(=O)n(C)c2ccc(OC)nc12` (single isomer, unassigned) [Example 428], in test [1] (setting [7]), the EC50 is 20000 nM. The IC50 on human DGKζ (setting [6]) was 125000 nM.
`C[C@@H]1CN(c2nc(=O)n(C)c3ccc(C#N)nc23)[C@@H](C)CN1C(c1ccc(F)cc1)c1ccc(C(F)(F)F)cn1` (stereo in doubt) [Example 126]: the EC50 in test [1] (setting [8]) came to 680 nM.
As for `CC[C@@H]1CN(c2nc(=O)n(C)c3ccc(C#N)nc23)[C@@H](C)CN1Cc1ccc2c(c1)OC(F)(F)O2` [Example 55, 4-((2S,5R)-((2,2-difluorobenzo[d][1,3]dioxol-5-yl)methyl)-5-ethyl-2-methylpiperazin-1-yl)-1-methyl-2-oxo-1,2-dihydropyrido[3,2-d]pyrimidine-6-carbonitrile], in test [1] (setting [8]), the EC50 worked out at 790 nM.
Consider `CC[C@@H]1CN(c2nc(=O)n(C)c3ccc(C#N)nc23)[C@@H](CC)CN1Cc1ccc(OCC2CC2)cc1` [Example 185, 4-((2S,5R)-4-(4-(Cyclopropylmethoxy)benzyl)-2,5-diethylpiperazin-1-yl)-1-methyl-2-oxo-1,2-dihydropyrido[3,2-d]pyrimidine-6-carbonitrile], for which the IC50 at human DGKα (setting [2]) amounted to 270 nM; on human DGKζ (setting [4]), 610 nM.
In the case of `CCC(c1ccc(C2CC2)cc1)N1C[C@H](CC)N(c2nc(=O)n(C)c3ccc(C#N)nc23)C[C@H]1CC` (stereo partly drawn) [Example 200, 4-((2S,5R)-4-(1-(4-cyclopropylphenyl)propyl)-2,5-diethylpiperazin-1-yl)-1-methyl-2-oxo-1,2-dihydropyrido[3,2-d]pyrimidine-6-carbonitrile], the IC50 amounted to 12 nM on human DGKα (setting [2]) and 13 nM on human DGKζ (setting [4]).
Take `CC[C@H]1CN(C(C)c2ccc(N3CCCC3=O)cc2)[C@H](CC)CN1c1nc(=O)n(C)c2ccc(C#N)nc12` (stereo partly drawn) [Example 231, 4-((2S,5R)-2,5-diethyl-4-(1-(4-(2-oxopyrrolidin-1-yl)phenyl)ethyl)piperazin-1-yl)-1-methyl-2-oxo-1,2-dihydropyrido[3,2-d]pyrimidine-6-carbonitrile]: the EC50 in test [1] (setting [3]) stood at 9740 nM.
On the same count and under the same terms, then `CCCC(c1ccc(C(F)(F)F)cc1)N1C[C@H](CC)N(c2nc(=O)n(C)c3ccc(C#N)nc23)C[C@H]1CC` (stereo partly drawn) [Example 244, 4-((2S,5R)-2,5-Diethyl-4-(1-(4-(trifluoromethyl)phenyl)butyl)piperazin-1-yl)-1-methyl-2-oxo-1,2-dihydropyrido[3,2-d]pyrimidine-6-carbonitrile], with 13300 nM.
With `CCOC(=O)[C@H]1C[C@@H]1Oc1ccc(C(C)N2C[C@H](CC)N(c3nc(=O)n(C)c4ccc(C#N)nc34)C[C@H]2CC)cc1` (stereo partly drawn) [Example 260, ethyl (1S,2S)-2-(4-(1-((2R,5S)-4-(6-cyano-1-methyl-2-oxo-1,2-dihydropyrido[3,2-d]pyrimidin-4-yl)-2,5-diethylpiperazin-1-yl)ethyl)phenoxy)cyclopropane-1-carboxylate], at human DGKζ (setting [4]), the IC50 was 3030 nM.
Turning to `CCOc1ccc2c(n1)c(N1C[C@@H](CC)N(C(C)c3ccc(C(F)(F)F)cc3)C[C@@H]1CC)nc(=O)n2C` (stereo partly drawn) [Example 429, 4-((2S,5R)-2,5-diethyl-4-(1-(4-(trifluoromethyl)phenyl)ethyl)piperazin-1-yl)-6-ethoxy-1-methylpyrido[3,2-d]pyrimidin-2(1H)-one], in test [1] (setting [7]), the EC50 was determined as 20000 nM. The IC50 on human DGKζ (setting [6]) is 99500 nM.
For the compound `CC[C@H]1CN(C(C)c2ccc(C(F)(F)F)cc2)[C@H](CC)CN1c1nc(=O)n(C)c2ccc(OCCN(C)C)nc12` (stereo partly drawn) [Example 432, 4-((2S,5R)-2,5-diethyl-4-(1-(4-(trifluoromethyl)phenyl)ethyl)piperazin-1-yl)-6-(2-(dimethylamino)ethoxy)-1-methylpyrido[3,2-d]pyrimidin-2(1H)-one], in test [1] (human whole blood, anti-CD3 plus anti-CD28 stimulation, 24 hours, read-out: IFN-γ Whole Blood EC50), the concentration for a half-maximal effect (EC50) was 20000 nM. At human DGKζ (setting [6]), the IC50 amounted to 41700 nM.
